These results are taken from publication PMC13503962, “Uncovering the genetic basis of fruit volatiles in Fragaria vesca through GWAS reveals FvJMT2 as a methyl benzoate biosynthesis gene with bioactivity against Drosophila suzukii” (Horticulture Research, 2026).

The test system of the assay is T1, FvJMT2 (FvJMT2^C275, functional full-length allele).
T1 construct: full-length CDS (1173 nt, 390 residues) in pQE80L, N-terminal 6xHis tag, E. coli XL1-Blue, Ni-NTA purified; tag removal not mentioned
Kind of assay: radiochemical methyl transfer from […]-SAM, hexane extraction, scintillation counting; nonlinear Michaelis-Menten fit. The note with it: co-substrate SAM (saturating); 50 mM Tris-HCl pH 7.5, 2.5 mM MgCl2, 5 mM DTT, 2.5 mM EDTA, 30 °C; read-out: Kinetic parameters / Km /. The class given is biochemical, Fragaria vesca.
Turning to `O=C(O)c1ccccc1` [Benzoic acid], the Km was 577 µM.

Take `O=C(O)/C=C/c1ccccc1` [Cinnamic acid]: the Km was 597 µM.

As for `CC/C=C\C[C@H]1C(=O)CC[C@@H]1CC(=O)O` [Jasmonic acid], the Km amounted to 174 µM. For the compound `O=C(O)c1ccccc1O` [Salicylic acid], the Km is 690 µM.
